Test results as given in patent publication US7723524B2, “8-cyanoquinolonecarboxylic acid derivative” (Daiichi Pharmaceutical Co., Ltd., priority 2003, dated 2010).
Converted amounts (≈) assume the structure as drawn. Counter-ions that a name gives are not always drawn. Like-named read-outs stand apart in the source and are kept apart here.

Experiments:
S. maltophilia IID 1275 = assay: Antibacterial activity (MIC), standard method of the Japanese Society of Chemotherapy; assay type: cell-based; details: Stenotrophomonas maltophilia, IID1275
Description: (§1) Antibacterial activity of the compounds of the present invention was measured in accordance with the standard method designated by the Japanese Society of Chemotherapy. The results are shown in MIC values (μg/mL) (Table 1). For comparison with the MIC values of the compounds of the present invention, MIC values of levofloxacin (LVFX), ciprofloxacin (CPFX), and 7-[3-(R)-(1-aminocyclopropyl)pyrrolidin-1-yl]-8-cyano-1-[2-(S)-fluoro-1-(R)-cyclopropyl]-1,4-dihydro-4-oxoquinoline-3-carboxylic acid (control drug 1: represented by the following formula), which is described in International Publication WO 02/40478 pamphlet, are also shown in the table.

S. epidermidis 56500 = assay: as above; assay type: cell-based; details: Staphylococcus epidermidis
Description: as §1

E. faevcalis ATCC 19433 = assay: as above; assay type: cell-based
Description: as §1

S. aureus FDA 209P = assay: as above; assay type: cell-based; details: Staphylococcus aureus, FDA209P
Description: as §1

K. pneumoniae TYPE I = assay: as above; assay type: cell-based; details: Klebsiella pneumoniae
Description: as §1

P. Vulgaris 08601 = assay: as above; assay type: cell-based; details: Proteus vulgaris
Description: as §1

S. marcescens 10100 = assay: as above; assay type: cell-based; details: Serratia marcescens
Description: as §1

P. aeruginosa 32104 = assay: as above; assay type: cell-based; details: Pseudomonas aeruginosa
Description: as §1

S. pyogenes G-36 = assay: as above; assay type: cell-based; details: Streptococcus pyogenes, G36
Description: as §1

P. aeruginosa 32121 = assay: as above; assay type: cell-based; details: Pseudomonas aeruginosa
Description: as §1

E. coli NIHJ = assay: as above; assay type: cell-based; details: Escherichia coli
Description: as §1

S. aureus 870307 = assay: as above; assay type: cell-based; details: Staphylococcus aureus
Description: as §1

S. pneumoniae J24 = assay: as above; assay type: cell-based; details: Streptococcus pneumoniae
Description: as §1

S. flexneri 2A 5503 = assay: as above; assay type: cell-based; details: Shigella flexneri, 2A5503
Description: as §1

[1] = system: mouse bone marrow polychromatic erythrocytes; assay: Mouse bone marrow micronucleus test; assay type: in vivo; details: male Slc:ddY mice, 24 hours after administration
Description: By use of compound Nos. 1 and 2, a mouse bone marrow micronucleus test was performed through the following method.
Groups of mice, each consisting of five, six-week-old, male Slc:ddY mice, were used. Compound Nos. 1 and 2 were dissolved in and diluted with 0.1 mol/L NaOH/saline. The medium; i.e., 0.1 mol/L NaOH/saline, was used as a control, and a drug solution which had been prepared by dissolving and diluting cyclophosphamide in saline was used as a positive control drug. All the drug solutions were disinfected through filtration by use of a Mylex GS 0.22 μm filter. Each drug solution was intravenously administered with a regimen of 10 mL/kg single dose at a rate of 0.2 mL/min (100 and 150 mg/kg). Twenty four hours after administration, […] were collected from the femur bone, the smear preparations were prepared, and these were stained with […].

[2] = S. maltophilia IID 1275, read-out: MIC
[3] = S. epidermidis 56500, read-out: MIC
[4] = E. faevcalis ATCC 19433, read-out: MIC
[5] = S. aureus FDA 209P, read-out: MIC
[6] = K. pneumoniae TYPE I, read-out: MIC
[7] = P. Vulgaris 08601, read-out: MIC
[8] = S. marcescens 10100, read-out: MIC
[9] = P. aeruginosa 32104, read-out: MIC
[10] = S. pyogenes G-36, read-out: MIC
[11] = P. aeruginosa 32121, read-out: MIC
[12] = S. aureus 870307, read-out: MIC
[13] = S. pneumoniae J24, read-out: MIC

Structure (SMILES) | MIC (S. maltophilia IID 1275; [2]) | MIC (S. epidermidis 56500; [3]) | MIC (E. faevcalis ATCC 19433; [4]) | MIC (S. aureus FDA 209P; [5]) | MIC (K. pneumoniae TYPE I; [6]) | MIC (P. Vulgaris 08601; [7]) | MIC (S. marcescens 10100; [8]) | MIC (P. aeruginosa 32104; [9]) | MIC (S. pyogenes G-36; [10]) | MIC (P. aeruginosa 32121; [11]) | MIC (E. coli NIHJ; E. coli NIHJ, read-out: MIC) | MIC (S. aureus 870307; [12]) | MIC (S. pneumoniae J24; [13]) | MIC (S. flexneri 2A 5503) | further results
N#Cc1c(N2CC[C@@H](C3(N)CC3)C2)c(F)cc2c(=O)c(C(=O)O)cn(C3CC3)c12 (as salt: trifluoroacetate) (hydrate or solvate) [Compound No. 2, 7-[3-(R)-(1-Aminocyclopropyl)pyrrolidin-1-yl]-8-cyano-1-cyclopropyl-6-fluoro-1,4-dihydro-4-oxoquinoline-3-carboxylate] | – | – | – | – | – | – | – | – | – | – | – | – | – | – | melting point: 148 to 152 °C
N#Cc1c(N2CC[C@@H](C3(N)CC3)C2)c(F)cc2c(=O)c(C(=O)O)cn([C@@H]3C[C@@H]3F)c12 (hydrate or solvate) [Compound No. 1, 7-[3-(R)-(1-Aminocyclopropyl)pyrrolidin-1-yl]-8-cyano-6-fluoro-1-[2-(S)-fluoro-1-(R)-cyclopropyl]-1,4-dihydro-4-oxoquinoline-3-carboxylate] | – | – | – | – | – | – | – | – | – | – | – | – | – | – | melting point: 138 to 140 °C
O=C(O)c1cn(C2CC2)c2cc(N3CCNCC3)c(F)cc2c1=O [CPFX, ciprofloxacin, reference compound] | 0.78 µg/mL (≈ 2.35 µM) | 0.2 µg/mL (≈ 0.604 µM) | 0.78 µg/mL (≈ 2.35 µM) | 0.1 µg/mL (≈ 0.302 µM) | 0.025 µg/mL (≈ 0.0754 µM) | ≤ 0.003 µg/mL | 0.025 µg/mL (≈ 0.0754 µM) | 0.05 µg/mL (≈ 0.151 µM) | 1.56 µg/mL (≈ 4.71 µM) | 0.025 µg/mL (≈ 0.0754 µM) | ≤ 0.003 µg/mL | > 6.25 µg/mL | 0.39 µg/mL (≈ 1.18 µM) | 0.006 µg/mL (≈ 0.0181 µM) | –
N#Cc1c(N2CC[C@@H](C3(N)CC3)C2)ccc2c(=O)c(C(=O)O)cn([C@@H]3C[C@@H]3F)c12 [Control drug 1, 7-[3-(R)-(1-aminocyclopropyl)pyrrolidin-1-yl]-8-cyano-1-[2-(S)-fluoro-1-(R)-cyclopropyl]-1,4-dihydro-4-oxoquinoline-3-carboxylic acid, reference compound] | 0.78 µg/mL (≈ 1.97 µM) | 0.05 µg/mL (≈ 0.126 µM) | 0.1 µg/mL (≈ 0.252 µM) | 0.006 µg/mL (≈ 0.0151 µM) | 0.1 µg/mL (≈ 0.252 µM) | 0.025 µg/mL (≈ 0.0631 µM) | 0.1 µg/mL (≈ 0.252 µM) | 0.2 µg/mL (≈ 0.505 µM) | 0.025 µg/mL (≈ 0.0631 µM) | 0.1 µg/mL (≈ 0.252 µM) | 0.012 µg/mL (≈ 0.0303 µM) | 0.39 µg/mL (≈ 0.984 µM) | 0.025 µg/mL (≈ 0.0631 µM) | 0.012 µg/mL (≈ 0.0303 µM) | –
C[C@H]1COc2c(N3CCN(C)CC3)c(F)cc3c(=O)c(C(=O)O)cn1c23 [LVFX, levofloxacin, reference compound] | 0.39 µg/mL (≈ 1.08 µM) | 0.39 µg/mL (≈ 1.08 µM) | 0.78 µg/mL (≈ 2.16 µM) | 0.2 µg/mL (≈ 0.553 µM) | 0.1 µg/mL (≈ 0.277 µM) | 0.012 µg/mL (≈ 0.0332 µM) | 0.1 µg/mL (≈ 0.277 µM) | 0.2 µg/mL (≈ 0.553 µM) | 0.78 µg/mL (≈ 2.16 µM) | 0.1 µg/mL (≈ 0.277 µM) | 0.012 µg/mL (≈ 0.0332 µM) | > 6.25 µg/mL | 0.78 µg/mL (≈ 2.16 µM) | 0.025 µg/mL (≈ 0.0692 µM) | –
N#Cc1c(N2CC[C@@H](C3(N)CC3)C2)c(F)cc2c(=O)c(C(=O)O)cn([C@@H]3C[C@@H]3F)c12 [No. 1] | 0.2 µg/mL (≈ 0.483 µM) | 0.006 µg/mL (≈ 0.0145 µM) | 0.025 µg/mL (≈ 0.0603 µM) | ≤ 0.003 µg/mL | 0.025 µg/mL (≈ 0.0603 µM) | 0.006 µg/mL (≈ 0.0145 µM) | 0.025 µg/mL (≈ 0.0603 µM) | 0.1 µg/mL (≈ 0.241 µM) | 0.006 µg/mL (≈ 0.0145 µM) | 0.05 µg/mL (≈ 0.121 µM) | ≤ 0.003 µg/mL | 0.05 µg/mL (≈ 0.121 µM) | 0.006 µg/mL (≈ 0.0145 µM) | ≤ 0.003 µg/mL | difference in the micronucleus induction rate between the control and the administration group ([1]; 150 mg/kg intravenous single dose): no significant difference; micronucleus test judgment result ([1]; intravenous single dose, up to 150 mg/kg): negative
N#Cc1c(N2CC[C@@H](C3(N)CC3)C2)c(F)cc2c(=O)c(C(=O)O)cn(C3CC3)c12 [No. 2] | 0.1 µg/mL (≈ 0.252 µM) | 0.012 µg/mL (≈ 0.0303 µM) | 0.025 µg/mL (≈ 0.0631 µM) | ≤ 0.003 µg/mL | 0.012 µg/mL (≈ 0.0303 µM) | 0.006 µg/mL (≈ 0.0151 µM) | 0.025 µg/mL (≈ 0.0631 µM) | 0.1 µg/mL (≈ 0.252 µM) | 0.006 µg/mL (≈ 0.0151 µM) | 0.05 µg/mL (≈ 0.126 µM) | ≤ 0.003 µg/mL | 0.05 µg/mL (≈ 0.126 µM) | 0.006 µg/mL (≈ 0.0151 µM) | ≤ 0.003 µg/mL | –
CNC1([C@@H]2CCN(c3c(F)cc4c(=O)c(C(=O)O)cn([C@@H]5C[C@@H]5F)c4c3C#N)C2)CC1 [No. 3] | – | – | – | – | – | – | – | – | – | – | – | – | – | ≤ 0.003 µg/mL | MIC (S. maltophilia IID 1275): 0.1 µg/mL (≈ 0.233 µM); MIC (S. epidermidis 56500; 56500): 0.012 µg/mL (≈ 0.028 µM); MIC (E. faevcalis ATCC 19433): 0.05 µg/mL (≈ 0.117 µM); MIC (S. aureus FDA 209P): 0.006 µg/mL (≈ 0.014 µM); MIC (K. pneumoniae TYPE I): 0.025 µg/mL (≈ 0.0584 µM); MIC (P. Vulgaris 08601): 0.012 µg/mL (≈ 0.028 µM); MIC (S. marcescens 10100; 10100): 0.05 µg/mL (≈ 0.117 µM); MIC (P. aeruginosa 32104; 32104): 0.1 µg/mL (≈ 0.233 µM); MIC (S. pyogenes G-36): 0.006 µg/mL (≈ 0.014 µM); MIC (P. aeruginosa 32121; 32121): 0.05 µg/mL (≈ 0.117 µM); MIC (E. coli NIHJ): ≤ 0.003 µg/mL; MIC (S. aureus 870307; 870307): 0.025 µg/mL (≈ 0.0584 µM); MIC (S. pneumoniae J24; J24): 0.006 µg/mL (≈ 0.014 µM)
CCNC1([C@@H]2CCN(c3c(F)cc4c(=O)c(C(=O)O)cn([C@@H]5C[C@@H]5F)c4c3C#N)C2)CC1 [No. 4] | – | – | – | – | – | – | – | – | – | – | – | – | – | 0.006 µg/mL (≈ 0.0136 µM) | MIC (S. maltophilia IID 1275): 0.2 µg/mL (≈ 0.452 µM); MIC (S. epidermidis 56500; 56500): 0.006 µg/mL (≈ 0.0136 µM); MIC (E. faevcalis ATCC 19433): 0.05 µg/mL (≈ 0.113 µM); MIC (S. aureus FDA 209P): 0.006 µg/mL (≈ 0.0136 µM); MIC (K. pneumoniae TYPE I): 0.025 µg/mL (≈ 0.0565 µM); MIC (P. Vulgaris 08601): 0.012 µg/mL (≈ 0.0271 µM); MIC (S. marcescens 10100; 10100): 0.1 µg/mL (≈ 0.226 µM); MIC (P. aeruginosa 32104; 32104): 0.2 µg/mL (≈ 0.452 µM); MIC (S. pyogenes G-36): 0.025 µg/mL (≈ 0.0565 µM); MIC (P. aeruginosa 32121; 32121): 0.1 µg/mL (≈ 0.226 µM); MIC (E. coli NIHJ): 0.006 µg/mL (≈ 0.0136 µM); MIC (S. aureus 870307; 870307): 0.025 µg/mL (≈ 0.0565 µM); MIC (S. pneumoniae J24; J24): 0.006 µg/mL (≈ 0.0136 µM)
